US7629318B2, “Immunosuppressant compounds, methods and uses related thereto” (priority 2002, dated 2009)
pIC50: −log10 of the molar value. Numbered stars: 1 amine (or outer) side, 2 acyl side, 3 side chain; on linkers, the order of the positions; unused ones are H or OH. Square brackets hold non-standard residues; d marks the D form. Peptide text beside a SMILES is read from it. ξ: configuration not given here. Gly(1-amidinopiperidin-4-yl) = N=C(N)N1CCC([C@H](N)C(=O)O)CC1; X1 = CC(C)c1oc([C@H](CO)N[*:1])nc1C(=O)[*:2]; Pro(3R-Ph) = O=C(O)[C@H]1NCC[C@@H]1c1ccccc1; Cha = N[C@@H](CC1CCCCC1)C(=O)O; ξDisc = O=C(O)C1NCc2ccccc21

Legend:
[1] = biological target: Cathepsin B1 (EC 3.4.22.1 from bovine spleen) (Bos taurus, UniProt P07688); conditions: Cathepsin B, 4 h
[2] = biological target: DR4Dw14 (DRA1*0101 DRB1*0404) (Homo sapiens, UniProt P01903+P01911, A100R/A169T/F76Y/I96L/K127E/L162R/M171V/N62H/P40V/Q125Y/R42H/S133A/S149N/S66Y/V209L/W38E); assay: Competitive binding to MHC-II protein DR4Dw14; conditions: 0404; read-out: Protein binding IC50 (nM) 0404
Outline: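 Each MHC-II allele incubated with compound 16 hours at room temperature in duplicate; controls lacked compound, or both compound and MHC-II. Complexes captured 2 h at 4 °C, bound biotinylated peptide detected via europium-streptavidin and DELFIA enhancement, time-resolved fluorescence read at ex 340/em 613 (615) nm.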

[3] = biological target: T1, Priess (DR4Dw4: DRA1*0101 DRB1*0401) cells (Homo sapiens, UniProt P01903+P01911, A100K/A169T/F76Y/I96L/K127E/L162R/M171V/N62H/P40V/Q125Y/R42H/S133A/S149N/S66Y/V115G/V209L/W38E); assay: Competitive binding to MHC II proteins expressed on Priess cells; type: cell-based
T1 construct: MHC II Proteins Expressed on PRIESS and LG2 Cells; endogenous in cells; host or cells: Priess cells
Outline: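 LG2 or Priess cells incubated 4 h at 37° C, 6% CO2 in 1% FCS with 10-fold compound dilutions (series 16 nM-1615 μM) and biotinylated-detectable indicator peptide (16 μM solution added). Lysates captured 2 h at 4° C; bound peptide detected via europium-streptavidin time-resolved fluorescence (ex 340, em 613 nm).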

[4] = test system: T-cell proliferation, lymph node cells of chimeric 0401-IE transgenic mice; conditions: DR4-LN
Outline: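 Antigen-primed lymph node cells (1.5×10^5/well) from mice lacking murine class II and carrying a chimeric human RA-associated class II transgene, cultured 3 days with ovalbumin at half-maximal dose plus compound (~0.1–200 uM) in serum-free HL-1. Proliferation read by 3H-thymidine incorporation over the final 16 h.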

[5] = Stability of compounds in human blood plasma; type: in vitro ADME
Outline: (§1)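 Compounds at 5 μM final in rat, mouse or human plasma, incubated at 37 °C and sampled at 0, 6 and 24 h. Proteins precipitated with acetonitrile and the supernatant dried and reconstituted in 50% acetonitrile/0.1% TFA. PBS controls run for unstable compounds.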

[6] = Stability of compounds in rat blood plasma; type: in vitro ADME
Outline: as §1

[7] = test system: T-cell proliferation, DR14-LN

## CSCC[C@H](NC(=O)C1c2ccccc2CN1C(=O)[C@@H](NC(=O)[C@H](CC1CCCCC1)NC(C)=O)C1CCN(C(=N)N)CC1)C(=O)N1CC[C@H](c2ccccc2)[C@H]1C(=O)N[C@@H](CO)c1nc(C(=O)N(C)C)c(C(C)C)o1 (stereo partly drawn) [Compound P41-1, Ac-Cha-Gpg-Disc-Met-βPhPro-[S(oxaz)L]-NMe2] (Ac-[Cha][Gly(1-amidinopiperidin-4-yl)][ξDisc]M[Pro(3R-Ph)][X1]-NMe2)
[1]
  Stability (Arbitrary units) Cath B 4 h: 104 Arbitrary units
[2]
  IC50: 110 nM
[3]
  pIC50: 5.43
[4]; maximal inhibition
  Immunsupressive assays DR4-LN (Max) % Inhibition: 96%
[4]; read-out: Immunsupressive assays DR4-LN (IC50)
  pIC50: 4.31
[5]
  Stability (Arbitrary units) Human 6 h: 59 Arbitrary units
  Stability (Arbitrary units) Human 24 h: 115 Arbitrary units
[6]
  Stability (Arbitrary units) Rat 6 h: 91 Arbitrary units
[6]; rat plasma, 24 h
  Stability (Arbitrary units) Rat 24 h: 103 Arbitrary units
[7]; maximal inhibition
  Immunsupressive assays DR14-LN (Max) % Inhibition: 98%
[7]; read-out: Immunsupressive assays DR14-LN (IC50)
  pIC50: 4.60
